Where “and” joins values, the source holds several entries; their conditions need not be identical. Equal values may be shown once. Read-outs that look alike come from different tables or passages of the source.
How the values were obtained:
hiPSC [1] = assay: EdU incorporation (proliferation), hiPSC; assay type: cell-based, human; conditions: 24 h, hiPSC's IC20 and IC50
Experimental: (§1) To investigate the effect of toxins on the proliferation rate, the incorporation of EdU into S-phase cells was determined using the EdU-Click 488 assay according to the manufacturer’s protocol (Baseclick GmbH, Tutzing, Germany) as reported earlier (Mboni-Johnston et al. [2023]).

[2] = tested on: senescence-associated genes (β-GAL, IL-8, p21) in hiPSC; assay: RT-PCR senescence-associated genes, hiPSC; assay type: cell-based, human; conditions: 48 h after a 24 h treatment
Experimental: (§2) RNA was isolated using the RNeasy Mini Kit and RNase-free DNase Set (Qiagen, Venlo, The Netherlands) according to the manufacturer’s protocol as reported previously (Mboni-Johnston et al. [2023]). The primer sequences (Table S1, supplement) used for the mRNA expression analyses were designed with the help of NCBI (https://www.ncbi.nlm.nih.gov/nuccore/) and validated for specificity. At the end of the run, data were analyzed using CFX Manager software (v3.1, Bio-Rad Laboratories, Hercules, CA, USA) according to the manufacturer’s instructions. All samples were run with three technical replicates. The Cq values obtained for the genes of interest were first normalized to the mean Cq values obtained for the housekeeping genes ACT-β and RPL-32 and then for the control samples and expressed as a fold of this mean value. Changes in gene expression of ≤ 0.5- and ≥ twofold were considered biologically relevant.

diffD9 [3] = assay: TUNEL assay (apoptosis), diffD9; assay type: cell-based, human; conditions: diffD9, 24 h, IC20 and IC50 of the hiPSC (CisPt: a higher concentration added)
Experimental: (§3) To verify whether the substances analyzed induce apoptosis in the cells at different stages of differentiation, the TUNEL (terminal deoxynucleotidyl transferase-mediated dUTP-fluorescein nick-end labeling) assay was performed with cells grown on coverslips using the In-Situ Cell Death Detection Assay Kit (Roche GmbH, Grenzach-Wyhlen, Germany) according to the manufacturer’s instructions. The TUNEL assay visualizes free hydroxyl groups from fragmented DNA produced during apoptosis by labeling them with modified nucleotides through an enzymatic reaction (Gavrieli et al. [1992]). The coverslips were mounted with […]® Antifade Mounting Medium containing DAPI and sealed with nail polish. Fluorescence images were acquired using a fluorescence microscope (Olympus BX43 Upright Microscope, Olympus, Shinjuku, Tokyo, Japan) at 200-fold magnification and analyzed using ImageJ 1.51j8 (Schneider et al. [2012]). TUNEL-positive cells were referenced to the total number of cells and normalized to the untreated control.

[4] = tested on: senescence-associated genes (β-GAL, IL-8, p21) in diffD3; assay: RT-PCR senescence-associated genes, diffD3; assay type: cell-based, human; conditions: diffD3, 48 h after a 24 h treatment
Experimental: as §2

diffD3 [5] = assay: TUNEL assay (apoptosis), diffD3; assay type: cell-based, human; conditions: diffD3, 24 h, IC20 and IC50 of the hiPSC
Experimental: as §3

hiPSC [6] = assay: TUNEL assay (apoptosis), hiPSC; assay type: cell-based, human; conditions: 24 h, IC20 and IC50 of the hiPSC
Experimental: as §3

diffD3 [7] = assay: EdU incorporation (proliferation), diffD3; assay type: cell-based, human; conditions: diffD3, 24 h, hiPSC's IC20 and IC50
Experimental: as §1

[8] = tested on: senescence-associated genes (β-GAL, IL-8, p21) in diffD9; assay: RT-PCR senescence-associated genes, diffD9; assay type: cell-based, human; conditions: diffD9, 48 h after a 24 h treatment
Experimental: as §2

diffD9 [9] = assay: FITC-albumin uptake at diffD9 after treatment at diffD3; assay type: cell-based, human; conditions: treated 24 h at diffD3 with hiPSC's IC20 and IC50, analyzed at diffD9
Experimental: Cells were incubated with serum-free medium with/without 100 µg/ml FITC-albumin for 2 h at 37 °C, and uptake was stopped with ice-cold PBS. Cells were then harvested from Matrigel-coated wells with trypsin/EDTA, and albumin uptake was analyzed by flow cytometry [Becton Dickinson, Accuri™ C6 plus (Heidelberg, Germany)] as previously reported (Mboni-Johnston et al. [2023]).

hiPSC, diffD3 and diffD9 [10] = assay: Cell viability of all differentiation stages, with and without pan-caspase inhibitor QVD; assay type: cell-based, human; conditions: 10 µM QVD
Experimental: (§4) After 24 h of exposure, the viability of the undifferentiated, differentiating, and differentiated cells was examined using the Alamar Blue Assay (O'Brien et al. [2000]), as described previously (Mboni-Johnston et al. [2023]). The relative viability of the cells in the corresponding untreated controls was set to 100%.

diffD9 [11] = assay: EdU incorporation (proliferation), diffD9; assay type: cell-based, human; conditions: diffD9, 24 h, hiPSC's IC20 and IC50
Experimental: as §1

diffD9 [12] = tested on: diffD9; parameters: method as in Mboni-Johnston et al. [2023]; conditions: ref Mboni-Johnston et al. [2023]; cited from earlier work
[13] = tested on: stem cell markers, PTEC markers and transporters mRNA in diffD9; assay: RT-PCR marker gene expression at diffD9 after treatment at diffD3; assay type: cell-based, human; conditions: for expression of megalin and cubilin: treated at diffD3, analyzed at diffD9
Experimental: as §2

hiPSC [14] = tested on: hiPSC; parameters: method as in Mboni-Johnston et al. [2023]; conditions: as given in Fig. 7 legend, value from former study ref Mboni-Johnston et al. [2023], cited from earlier work
hiPSC, diffD3 and diffD9 [15] = tested on: hiPSC, diffD3 and diffD9; parameters: method as in Mboni-Johnston et al. [2023]; conditions: diffD3, differentiated PTELC ref Mboni-Johnston et al. [2023]; cited from earlier work
[16] = tested on: PTEC markers and transporters mRNA in diffD9; assay: RT-PCR marker gene expression in diffD9 treated at diffD9; assay type: cell-based, human; conditions: diffD9, 24 h; for Aqp-1 mRNA expression: IC20 and IC50, vs untreated diffD9; for Pept-1 mRNA expression: IC50 (tBHQ not statistically significant); for Meg (megalin) mRNA expression: Mena IC20 and IC50, tBHQ IC50 (not statistically significant)
Experimental: as §2

diffD9 [17] = assay: FITC-albumin uptake (flow cytometry) in diffD9 treated at diffD9; assay type: cell-based, human; conditions: diffD9, 24 h treatment (menadione: IC50)
Experimental: The effect of toxins on the transport function of hiPSC-derived PTELC was examined by adding fluorescently labeled bovine serum albumin (FITC-BSA) (Sigma-Aldrich, 10 mg/ml) to the culture medium. Cells were incubated with serum-free medium with/without 100 µg/ml FITC-albumin for 2 h at 37 °C, and uptake was stopped with ice-cold PBS. Cells were then harvested from Matrigel-coated wells with trypsin/EDTA, and albumin uptake was analyzed by flow cytometry [Becton Dickinson, Accuri™ C6 plus (Heidelberg, Germany)] as previously reported (Mboni-Johnston et al. [2023]).

[18] = tested on: human liver cell line HepG2; parameters: method as in Chen and Cederbaum [1997]; conditions: HepG2, after 18 h of incubation ref Chen and Cederbaum [1997]; read-out: IC50 (cytotoxicity); cited from earlier work
[19] = tested on: diffD3 (hiPSC differentiating into PTELC); assay: Alamar Blue cell viability, differentiating cells day 3; assay type: cell-based, human; conditions: for IC50 of diffD3, fold lower than those of hiPSC and diffD9: Alamar Blue, 24 h; for IC50: Homo sapiens, diffD3, 24 h treatment
Experimental: as §4

[20] = tested on: diffD9 (hiPSC differentiated into PTELC); assay: Alamar Blue cell viability, differentiated cells day 9; assay type: cell-based, human; conditions: diffD9, 24 h treatment; for IC20: read-out: IC20 (inhibitory concentration where 20% of the cells are dead)
Experimental: as §4

hiPSC [21] = assay: Alamar Blue cell viability, undifferentiated hiPSC; assay type: cell-based, human; conditions: for IC20 / IC50: Homo sapiens; for IC20: read-out: hiPSC's IC20
Experimental: as §4

endothelial cells = tested on: endothelial cells; parameters: method as in Karimi et al. [2019]; conditions: endothelial cells ref Karimi et al. [2019]; read-out: IC50 (cell viability); cited from earlier work
mammary epithelial cells = tested on: mammary epithelial cells; parameters: method as in Jin et al. [2016]; conditions: mammary epithelial cells ref Jin et al. [2016]; read-out: IC50 (cell viability); cited from earlier work
[22] = as given in Fig. 7 legend, concentration used to treat diffD3 for 24 h
[23] = as given in Fig. 7 legend, concentration used to treat diffD3 for 24 h, read-out: hiPSC's IC50
[24] = hiPSC, 24 h treatment, read-out: IC50 (cell viability, Alamar Blue)

Compound	EdU incorporation (proliferation) vs untreated control (hiPSC [1])	mRNA expression of senescence-associated genes (β-GAL, IL-8, p21) [4]	frequency of TUNEL-positive cells (diffD3 [5])	EdU incorporation (proliferation) vs untreated control (diffD3 [7])	mRNA expression of senescence-associated genes (β-GAL, IL-8, p21) [8]	albumin uptake (diffD9 [9])	EdU incorporation (cells in S-phase) vs untreated control (diffD9 [11])	Aqp-1 mRNA expression [16]	Pept-1 mRNA expression [16]	Meg (megalin) mRNA expression [16]	albumin transport (FITC-albumin uptake) (diffD9 [17])	IC50 of diffD3, fold lower than those of hiPSC and diffD9 [19]	IC50 [19]	IC50 ([20]; Homo sapiens, 24 h)	IC20 ([20]; Homo sapiens)	IC50 [20]	IC20 (hiPSC [21]; [22])	IC50 (hiPSC [21]; [23])	IC50 (hiPSC [21]; [24])	expression of megalin and cubilin [13]	further results
N.N.[Cl][Pt][Cl] [CisPt, cisplatin]	inhibited the likely proliferation-associated EdU incorporation in hiPSC in a dose-dependent manner	only p21 was significantly higher expressed in diffD3	increased in a dose-dependent manner	not affected	no extensive expression	strong effect	not affected														mRNA expression of senescence-associated genes (β-GAL, IL-8, p21) [2]: no extensive expression; frequency of TUNEL-positive cells (diffD9 [3]): increased in a dose-dependent manner; frequency of TUNEL-positive cells (hiPSC [6]): increased in a dose-dependent manner; cell viability under co-treatment with pan-caspase inhibitor QVD vs mono-treatment (hiPSC, diffD3 and diffD9 [10]): significant restoration of cell viability to almost control level; albumin uptake capacity of PTELC (diffD9 [12]): reduced the albumin uptake capacity; long-term changes in marker transcripts ([13]; treated 24 h at diffD3 with iPSCs' IC20, analyzed at diffD9): all but two transcripts being significantly reduced; IC20 (hiPSC [14]; read-out: hiPSC's IC20): 0.3 µM; IC50 (hiPSC [14]; read-out: hiPSC's IC50): 1 µM; relative sensitivity of differentiation stages (hiPSC, diffD3 and diffD9 [15]): hiPSC and diffD3 were more sensitive to CisPt than differentiated PTELC
CC1=CC(=O)c2ccccc2C1=O [Mena, menadione]	no significant differences in EdU incorporation		significantly increased	inhibited proliferation	IL-8 levels significantly increased	no effect on albumin transport itself	no significant differences in EdU incorporation	significant and dose-dependent decrease	increased significantly	significant and dose-dependent decrease	significant decrease	about four	4.1 µM	17.6 µM	11 µM	17 µM	3 µM	6 µM	16.2 µM	low but significant effect	Nanog mRNA expression ([16]; IC20): significantly increased; CD13 mRNA expression ([16]; IC50): increased significantly; Pept-2 mRNA expression ([16]; IC50): reduced expression; IC50 [18]: 18 to 19 µM; IC50 ([20]; listed as Menadione): 18 µM
CC(C)(C)c1cc(O)ccc1O [tBHQ, tert-butylhydroquinone]	no significant differences in EdU incorporation	IL-8 levels significantly increased	significantly increased	inhibited proliferation			no significant differences in EdU incorporation	significant dose-dependent decrease	increased above twofold	increased above twofold	increased the transport	7- to 12	2.8 µM	34.5 µM	15 µM	34 µM and 35 µM	4 µM	8 µM	18.5 µM	neither showed a relevant effect	IC50 (endothelial cells): 60 µM; IC50 (mammary epithelial cells): 50 µM; Cad-16 mRNA expression ([16]; IC50, statistically significant): increased above twofold; sensitivity of hiPSC compared to diffD9 (hiPSC [21]; Alamar Blue, 24 h): twice as sensitive

— paper PMC12185579, “Impact of nephrotoxins and oxidants on survival and transport function of hiPSC-derived renal proximal tubular cells” (Archives of Toxicology, 2025)
